# From ChEMBL document CHEMBL4304800, “C4-Phenylthio β-lactams: Effect of the chirality of the β-lactam ring on antimicrobial activity” (2019)
# Key:
# Type in all cases: functional
# Details in all cases: 336 h
# [1] = test system: Mycobacterium tuberculosis; experiment: Antitubercular activity against multi-drug resistant Mycobacterium tuberculosis K26b00MR after 14 days in presence of middlebrook 7H9/BSA medium by eleven fold serial dilution method
# [2] = test system: Mycobacterium tuberculosis; experiment: Antitubercular activity against multi-drug resistant Mycobacterium tuberculosis K29b00MR after 14 days in presence of middlebrook 7H9/BSA medium by eleven fold serial dilution method
# [3] = test system: Mycobacterium tuberculosis; experiment: Antitubercular activity against multi-drug resistant Mycobacterium tuberculosis K22b00MR after 14 days in presence of middlebrook 7H9/BSA medium by eleven fold serial dilution method
# [4] = test system: Mycobacterium tuberculosis; experiment: Antitubercular activity against multi-drug resistant Mycobacterium tuberculosis K25b00MR after 14 days in presence of middlebrook 7H9/BSA medium by eleven fold serial dilution method
Structure (SMILES),MIC [1] [µg/mL],MIC [2] [µg/mL],MIC [3] [µg/mL],MIC [4] [µg/mL]
C[C@@H](NC(=O)N1C(=O)C[C@@H]1Sc1ccc(F)cc1F)c1ccccc1,25,12.5,12.5,12.5
C[C@H](NC(=O)N1C(=O)C[C@H]1Sc1ccc(F)cc1F)c1ccccc1,25 to 50,25,25,12.5 to 25
C[C@H](NC(=O)N1C(=O)C[C@@H]1Sc1ccc(C(F)(F)F)cc1)c1ccccc1,12.5,12.5,12.5,12.5 to 25
C[C@@H](NC(=O)N1C(=O)C[C@H]1Sc1ccc(F)cc1F)c1ccccc1,12.5 to 25,12.5,12.5,12.5
O=C1CC(Sc2ccc(C(F)(F)F)cc2)N1C(=O)NCc1ccccc1 (racemic),12.5,25,12.5,25
NNC(=O)c1ccncc1 [ISONIAZID],> 1,≥ 1,0.6,1.3
